Assay results: DBAASP
≈ marks a conversion by molar mass, not a printed value. Where “and” joins values, the source holds several entries; their conditions need not be identical. Identical values can stand only once. One block for each molecule: values may come before it.

Key:
Assay in all cases: ≥ marks a high value that may be exact or a test limit, other limits are often not marked, values filed in µg/mL are converted to µM
[1] = test system: Staphylococcus epidermidis KCTC 1917
[2] = test system: Pseudomonas aeruginosa KCTC 1637
[3] = test system: Bacillus subtilis KCTC 3068
[4] = test system: Escherichia coli KCTC 1682
[5] = test system: Staphylococcus aureus KCTC 1621
[6] = test system: Salmonella typhimurium KCTC 1926
[7] = test system: Escherichia coli UB1005
[8] = test system: Pseudomonas aeruginosa PAO1
[9] = test system: Staphylococcus aureus ATCC 25923
[10] = test system: Bacillus subtilis ATCC 6633
[11] = test system: Escherichia coli ATCC 25922
[12] = test system: Klebsiella pneumoniae ATCC 700603
[13] = test system: Staphylococcus aureus
[14] = test system: Escherichia coli
[15] = test system: Candida albicans
[16] = test system: Acinetobacter baumannii
[17] = test system: Pseudomonas aeruginosa ATCC 9027
[18] = test system: Klebsiella pneumoniae ATCC 13883
[19] = test system: Klebsiella pneumoniae
[20] = test system: Salmonella enterica subsp. enterica serovar Typhimurium ATCC 14028
[21] = test system: Pseudomonas aeruginosa ATCC 27853

SMILES: CC[C@H](C)[C@H](NC(=O)[C@H](CCCN=C(N)N)NC(=O)[C@H](CCCN=C(N)N)NC(=O)[C@@H]1CCCN1C(=O)[C@H](Cc1c[nH]c2ccccc12)NC(=O)[C@H](CCCN=C(N)N)NC(=O)[C@@H]1CCCN1C(=O)[C@H](CCCN=C(N)N)NC(=O)[C@@H]1CCCN1C(=O)[C@H](CC(C)C)NC(=O)[C@H](Cc1ccc(O)cc1)NC(=O)[C@@H]1CCCN1C(=O)[C@@H]1CCCN1C(=O)[C@H](CCCCN)NC(=O)[C@H](CC(=O)O)NC(=O)[C@@H](N)C(C)C)C(=O)N[C@@H](Cc1ccc(O)cc1)C(=O)N[C@@H](CC(N)=O)C(=O)N[C@@H](CCCN=C(N)N)C(N)=O [VDKPPYLPRPRWPRRIYNR]
MIC [7]: 1.01 µM (≈ 2.5 µg/mL)
MIC [8]: 12.9 µM (≈ 32 µg/mL)
MIC [9]: 6.45 µM (≈ 16 µg/mL)

SMILES: CSCC[C@H](NC(=O)[C@@H](N)CO)C(=O)N[C@@H](CC(C)C)C(=O)N[C@@H](CO)C(=O)N[C@H](C(=O)N[C@@H](CC(C)C)C(=O)N[C@@H](CCCCN)C(=O)N[C@@H](CC(N)=O)C(=O)N[C@@H](CC(C)C)C(=O)NCC(=O)N[C@@H](CCCCN)C(=O)N[C@H](C(=O)NCC(=O)N[C@@H](CC(C)C)C(=O)NCC(=O)N[C@@H](Cc1ccccc1)C(=O)N[C@H](C(=O)N[C@@H](C)C(=O)O)C(C)C)C(C)C)C(C)C [SMLSVLKNLGKVGLGFVA]
MIC [13]: > 200 µM
MIC [14]: > 200 µM
MIC [15]: > 200 µM

SMILES: CC[C@H](C)[C@H](NC(=O)[C@H](CC(C)C)NC(=O)[C@H](CCCCN)NC(=O)[C@@H](NC(=O)[C@H](CC(C)C)NC(=O)[C@H](CCCN=C(N)N)NC(=O)[C@H](CCCN=C(N)N)NC(=O)[C@@H](NC(=O)[C@H](C)NC(=O)[C@H](CCCCN)NC(=O)[C@H](C)NC(=O)[C@H](CC(C)C)NC(=O)[C@@H](NC(=O)[C@@H](N)CCCN=C(N)N)[C@@H](C)CC)[C@@H](C)O)C(C)C)C(=O)N[C@H](C(=O)N[C@@H](CO)C(=O)NCC(=O)O)C(C)C [RILAKATRRLVKLIVSG]
MIC [11]: > 25 µM
MIC [16]: 25 µM (≈ 47.4 µg/mL)
MIC [9]: > 25 µM
MIC [12]: > 25 µM
MIC [17]: > 25 µM

SMILES: CC(C)C[C@H](NC(=O)[C@H](C)NC(=O)[C@H](CCCN=C(N)N)NC(=O)[C@H](C)NC(=O)[C@H](Cc1c[nH]c2ccccc12)NC(=O)CNC(=O)[C@H](CCCN=C(N)N)NC(=O)[C@@H](N)CCCN=C(N)N)C(=O)N[C@@H](C)C(=O)N[C@@H](Cc1ccccc1)C(=O)N[C@@H](C)C(=O)N[C@@H](Cc1ccccc1)C(=O)NCC(=O)N[C@@H](CCCN=C(N)N)C(N)=O [RRGWARALAFAFGR]
MIC [18]: 14.8 µM and 30 µM
MIC [19]: 1.9 µM (≈ 3.1 µg/mL)
MIC [11]: 6.6 µM and 15.5 µM
MIC [16]: 1.8 µM (≈ 2.94 µg/mL)
MIC [9]: > 30 µM

SMILES: CC[C@H](C)[C@H](NC(=O)CNC(=O)[C@H](CC(N)=O)NC(=O)[C@@H](NC(=O)[C@H](C)NC(=O)[C@H](CC(N)=O)NC(=O)[C@H](CC(C)C)NC(=O)[C@H](C)NC(=O)[C@H](C)NC(=O)[C@H](CCCN=C(N)N)NC(=O)CNC(=O)[C@H](C)NC(=O)[C@H](C)NC(=O)[C@H](C)NC(=O)[C@H](C)NC(=O)[C@H](CCSC)NC(=O)[C@H](CC(=O)O)NC(=O)[C@H](CCCCN)NC(=O)[C@@H](NC(=O)[C@H](CO)NC(=O)[C@H](CO)NC(=O)[C@H](Cc1c[nH]c2ccccc12)NC(=O)[C@H](CC(C)C)NC(=O)[C@@H](N)CO)[C@@H](C)CC)C(C)C)C(=O)N[C@@H](CC(C)C)C(=O)N[C@@H](CC(N)=O)C(=O)N1CCC[C@H]1C(N)=O [SLWSSIKDMAAAAGRAALNAVNGILNP]
MIC [19]: 189 µM (≈ 512 µg/mL)
MIC [11]: 47.2 µM (≈ 128 µg/mL)
MIC [15]: > 189 µM
MIC [9]: 189 µM (≈ 512 µg/mL)

SMILES: CC[C@H](C)[C@H](N)C(=O)N[C@@H](Cc1cnc[nH]1)C(=O)N[C@@H](CCCCN)C(=O)N[C@@H](CC(C)C)C(=O)N[C@H](C(=O)N[C@@H](CCCCN)C(=O)N[C@@H](CC(C)C)C(=O)N[C@@H](Cc1c[nH]c2ccccc12)C(=O)N[C@@H](CC(C)C)C(=O)N[C@@H](CC(N)=O)C(=O)N[C@@H](CC(C)C)C(=O)NCC(=O)N[C@@H](CCCCN)C(=O)N[C@@H](CCCCN)C(=O)N[C@@H](Cc1ccccc1)C(=O)O)C(C)C [IHKLVKLWLNLGKKF]
MIC [11]: 64 µM (≈ 118 µg/mL)
MIC [16]: ≥ 64 µM
MIC [9]: > 64 µM
MIC [12]: 64 µM (≈ 118 µg/mL)
MIC [17]: > 64 µM

Results, then the molecule that gave them:

MIC [1]: 2 µM (≈ 4.77 µg/mL)
MIC [2]: 8 µM (≈ 19.1 µg/mL)
MIC [3]: 2 µM (≈ 4.77 µg/mL)
MIC [4]: 8 µM (≈ 19.1 µg/mL)
MIC [5]: 4 µM (≈ 9.54 µg/mL)
MIC [6]: 8 µM (≈ 19.1 µg/mL)
SMILES: CC[C@H](C)[C@H](N)C(=O)NCC(=O)N[C@@H](CCCCN)C(=O)N[C@@H](CCCCN)C(=O)N[C@@H](Cc1ccccc1)C(=O)N[C@@H](CCCCN)C(=O)N[C@@H](CCCN=C(N)N)C(=O)N[C@H](C(=O)N[C@H](C(=O)N[C@@H](CCC(N)=O)C(=O)N[C@@H](CCCN=C(N)N)C(=O)N[C@H](C(=O)N[C@@H](CCCCN)C(=O)N[C@@H](CCCCN)C(=O)N[C@@H](Cc1ccccc1)C(=O)N[C@@H](CC(C)C)C(=O)N[C@@H](CCCN=C(N)N)C(=O)N[C@@H](CC(N)=O)C(=O)N[C@@H](CC(C)C)C(=O)O)[C@@H](C)CC)C(C)C)[C@@H](C)CC [IGKKFKRIVQRIKKFLRNL]

MIC [10]: ≥ 100 µM
SMILES: CC[C@H](C)[C@H](NC(=O)[C@H](CCCN=C(N)N)NC(=O)[C@@H](NC(=O)[C@@H]1CCCN1C(=O)[C@H](CCCN=C(N)N)NC(=O)[C@@H](NC(=O)[C@@H]1CCCN1C(=O)[C@H](CCCN=C(N)N)NC(=O)[C@H](CC(C)C)NC(=O)CNC(=O)[C@H](Cc1cnc[nH]1)NC(=O)[C@@H]1CCCN1C(=O)CNC(=O)[C@H](CC(C)C)NC(=O)[C@H](CC(N)=O)NC(=O)[C@H](Cc1c[nH]c2ccccc12)NC(=O)[C@H](C)NC(=O)[C@@H](NC(=O)[C@H](C)N)[C@@H](C)O)[C@@H](C)CC)[C@@H](C)CC)C(=O)N[C@@H](CCCN=C(N)N)C(=O)N1CCC[C@H]1C(=O)N[C@@H](CC(C)C)C(=O)N[C@@H](CS)C(=O)NCC(=O)N[C@@H](CCCCN)C(=O)N[C@@H](CC(=O)O)C(=O)N[C@@H](CCCCN)C(=O)N[C@@H](CO)C(=O)O [ATAWNLGPHGLRPIRPIRIRPLCGKDKS]

MIC [11]: 13 µM (≈ 32 µg/mL)
MIC [12]: 13 µM (≈ 32 µg/mL)
SMILES: CC[C@H](C)[C@H](NC(=O)[C@@H](NC(=O)[C@@H]1CCCN1C(=O)[C@@H](NC(=O)[C@@H]1CCCN1C(=O)[C@H](CCCCN)NC(=O)[C@H](CCCCN)NC(=O)[C@H](CO)NC(=O)CN)C(C)C)[C@@H](C)CC)C(=O)N[C@@H](Cc1ccc(O)cc1)C(=O)N[C@H]1CSSC[C@@H](C(=O)N[C@@H](CCC(N)=O)C(=O)N[C@@H](CCCN=C(N)N)C(=O)N[C@@H](CCSC)C(=O)O)NC(=O)[C@H](CCCCN)NC(=O)[C@H](C)NC(=O)[C@H]([C@@H](C)O)NC(=O)[C@H](CCCN=C(N)N)NC(=O)[C@H](CCCN=C(N)N)NC(=O)[C@H](CCC(N)=O)NC1=O [GSKKPVPIIYCQRRTAKCQRM]

MIC [18]: 30 µM (≈ 56.3 µg/mL)
MIC [20]: 10.6 µM and 30 µM
MIC [19]: 1.8 µM (≈ 3.38 µg/mL)
MIC [11]: 11.5 µM and 30 µM
MIC [16]: 4.8 µM (≈ 9 µg/mL)
MIC [9]: > 30 µM
SMILES: CC(C)C[C@H](NC(=O)[C@H](CCCN=C(N)N)NC(=O)[C@H](CCCN=C(N)N)NC(=O)[C@H](C)NC(=O)[C@H](Cc1c[nH]c2ccccc12)NC(=O)CNC(=O)[C@H](CCCN=C(N)N)NC(=O)[C@@H](N)CCCN=C(N)N)C(=O)N[C@@H](Cc1ccccc1)C(=O)N[C@@H](C)C(=O)N[C@@H](C)C(=O)N[C@@H](Cc1ccccc1)C(=O)NCC(=O)N[C@@H](CCCN=C(N)N)C(=O)N[C@@H](CCCN=C(N)N)C(N)=O [RRGWARRLFAAFGRR]

MIC [11]: 2.48 µM (≈ 4 µg/mL)
MIC [21]: 4.96 µM (≈ 8 µg/mL)
MIC [9]: 9.92 µM (≈ 16 µg/mL)
MIC [10]: 9.92 µM (≈ 16 µg/mL)
SMILES: CC(C)C[C@H](NC(=O)CNC(=O)[C@H](C)NC(=O)[C@@H](NC(=O)[C@H](CCCN=C(N)N)NC(=O)[C@H](CCCN=C(N)N)NC(=O)[C@H](CC(C)C)NC(=O)[C@@H](N)CC(C)C)C(C)C)C(=O)N[C@@H](CC(C)C)C(=O)N[C@@H](CCCCN)C(=O)N[C@@H](CCC(N)=O)C(=O)N[C@@H](Cc1ccccc1)C(=O)N[C@@H](C)C(=O)N[C@@H](CCCCN)C(=O)O [LLRRVAGLLKQFAK]

MIC [13]: > 200 µM
MIC [14]: > 200 µM
MIC [15]: > 200 µM
SMILES: CC[C@H](C)[C@H](NC(=O)[C@H](CCCCN)NC(=O)[C@@H](N)CS)C(=O)N[C@@H](CC(N)=O)C(=O)N[C@@H](CCCCN)C(=O)N[C@@H](CCC(N)=O)C(=O)N[C@@H](CS)C(=O)O [CKINKQC]
